Reference: patent US20260232767A1, “INTERLEUKIN-23 RECEPTOR ANTAGONIST PEPTIDES FOR USE IN THE TREATMENT OF PSORIASIS” (Janssen Pharmaceutica NV, priority 2023, published 2026)

System: subjects with moderate-to-severe plaque psoriasis
Test: PSSD symptoms and signs scores, Example 1
Type: in vivo, human
Conditions: each dose group vs placebo; Week 16
Excerpt: The Psoriasis Symptom and Sign Diary (PSSD) includes patient-reported outcome (PRO) questionnaires designed to measure the severity of psoriasis symptoms and signs for the assessment of treatment benefit. This study uses a 7-day recall version of the PSSD that asks the participant to answer the questions thinking about the last 7 days. The PSSD is a self-administered PRO instrument and includes 11 items covering symptoms (itch, pain, stinging, burning, and skin tightness) and patient-observable signs (skin dryness, cracking, scaling, shedding or flaking, redness, and bleeding) using 0 to 10 numerical rating scales for severity. Two subscores will be derived each ranging from 0 to 100: the psoriasis symptom score and the psoriasis sign score. A higher score indicates more severe disease.
Efficacy, PK, immunogenicity, biomarker, pharmacogenomic, and safety criteria were measured during the treatment. Subjects were provided with an electronic device to enter patient-reported outcome (PRO) data at each study visit. All visit-specific PRO assessments were conducted/completed before any tests, procedures or other clinical assessments, with the exception of the urine pregnancy test and urinalysis, to prevent influencing subject perceptions.

Q: Which “Improvement (reduction) in PSSD signs score from baseline” value does the source give for `CC(=O)NCCCC[C@@H]1NC(=O)[C@H](Cc2c[nH]c3c(C)cccc23)NC(=O)[C@H]([C@@H](C)O)NC(=O)[C@H](CC(N)=O)NC(=O)[C@@H](NC(C)=O)C(C)(C)SSC(C)(C)[C@@H](C(=O)N[C@@H](Cc2ccc(OCCN)cc2)C(=O)N[C@@H](Cc2ccc3ccccc3c2)C(=O)NC2(C(=O)N[C@@H](CCC(=O)O)C(=O)N[C@@H](CC(N)=O)C(=O)N[C@@H](Cc3cccnc3)C(=O)N(C)CC(N)=O)CCOCC2)NC1=O` [IL-23 receptor antagonist peptide, Ac-[Pen]*-N-T-[W(7-Me)]-[Lys(Ac)]-[Pen]*-Phe[4-(2-aminoethoxy)]-[2-Nal]-[THP]-E-N-[3-Pal]-Sarc-NH2 (*[Pen]-[Pen]* formdisulfidebond)] here?
A: significantly greater improvement

Q: And the “Improvement (reduction) in PSSD symptoms score from baseline” value?
A: significantly greater improvement
